Reference: ChEMBL document CHEMBL1201862, “PubChem BioAssay data set” (2004)
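All cell lines were grown in 96-well plates and treated with compound for 48 hours. Abbreviation: GI50, concentration required for 50% inhibition of growth.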 The source made the active and inactive calls. Cut-off read from the data, not from the text of the source: active = GI50 up to about 1.1 µM and inactive = higher.

What was measured:
Experiment in all cases: DTP human tumour cell line panel, 48 h
SR = tested on: SR
A549 = tested on: A549
UACC-62 = tested on: UACC-62
HT-29 = tested on: HT-29
UO-31 = tested on: UO-31
MDA-N = tested on: MDA-N
SK-MEL-5 = tested on: SK-MEL-5
COLO 205 = tested on: COLO 205
MDA-MB-231 = tested on: MDA-MB-231
IGROV-1 = tested on: IGROV-1
BT-549 = tested on: BT-549
SN12C = tested on: SN12C
SNB-75 = tested on: SNB-75
OVCAR-4 = tested on: OVCAR-4
M14 = tested on: M14
786-0 = tested on: 786-0
NCI-H226 = tested on: NCI-H226
Malme-3M = tested on: Malme-3M
MDA-MB-435 = tested on: MDA-MB-435
OVCAR-5 = tested on: OVCAR-5

Cc1ccccc1/N=N/c1c(O)c(S(=O)(=O)O)cc2cc(S(=O)(=O)O)ccc12
GI50 (SR): > 100 µM (inactive)
GI50 (A549): > 100 µM (inactive)
GI50 (UACC-62): > 100 µM (inactive)
GI50 (HT-29): > 100 µM (inactive)
GI50 (UO-31): > 100 µM (inactive)
GI50 (MDA-N): > 100 µM (inactive)
GI50 (SK-MEL-5): > 100 µM (inactive)
GI50 (COLO 205): > 100 µM (inactive)
GI50 (MDA-MB-231): > 100 µM (inactive)
GI50 (IGROV-1): > 100 µM (inactive)
GI50 (BT-549): > 100 µM (inactive)
GI50 (SN12C): > 100 µM (inactive)
GI50 (SNB-75): 70.1 µM (inactive)
GI50 (OVCAR-4): > 100 µM (inactive)
GI50 (M14): > 100 µM (inactive)
GI50 (786-0): > 100 µM (inactive)
GI50 (NCI-H226): > 100 µM (inactive)
GI50 (Malme-3M): > 100 µM (inactive)
GI50 (MDA-MB-435): > 100 µM (inactive)
GI50 (OVCAR-5): > 100 µM (inactive)

CO/C(=N\N=C\c1cccc(C(F)(F)F)c1)c1ccncc1
GI50 (SR): 5.75 µM (inactive)
GI50 (A549): 8.09 µM (inactive)
GI50 (UACC-62): 4.28 µM (inactive)
GI50 (HT-29): 4.62 µM (inactive)
GI50 (UO-31): 4.47 µM (inactive)
GI50 (MDA-N): 2.13 µM (inactive)
GI50 (SK-MEL-5): 11.4 µM (inactive)
GI50 (COLO 205): 13.5 µM (inactive)
GI50 (MDA-MB-231): 7.14 µM (inactive)
GI50 (IGROV-1): 10 µM (inactive)
GI50 (BT-549): 7.13 µM (inactive)
GI50 (SN12C): 3.67 µM (inactive)
GI50 (SNB-75): 15.5 µM (inactive)
GI50 (OVCAR-4): 41 µM (inactive)
GI50 (M14): 6.3 µM (inactive)
GI50 (786-0): 5.77 µM (inactive)
GI50 (NCI-H226): 3.56 µM (inactive)
GI50 (Malme-3M): 4.6 µM (inactive)
GI50 (MDA-MB-435): 2.32 µM (inactive)
GI50 (OVCAR-5): 32.5 µM (inactive)

Cn1c2c(c3ccccc31)CCN=C2C1CCCOC1=O (stereo not drawn)
GI50 (SR): > 100 µM (inactive)
GI50 (A549): > 100 µM (inactive)
GI50 (UACC-62): > 100 µM (inactive)
GI50 (HT-29): > 100 µM (inactive)
GI50 (UO-31): 43.5 µM (inactive)
GI50 (MDA-N): > 100 µM (inactive)
GI50 (SK-MEL-5): > 100 µM (inactive)
GI50 (COLO 205): > 100 µM (inactive)
GI50 (MDA-MB-231): > 100 µM (inactive)
GI50 (IGROV-1): > 100 µM (inactive)
GI50 (BT-549): 47 µM (inactive)
GI50 (SN12C): > 100 µM (inactive)
GI50 (SNB-75): 85.9 µM (inactive)
GI50 (OVCAR-4): > 100 µM (inactive)
GI50 (M14): > 100 µM (inactive)
GI50 (786-0): > 100 µM (inactive)
GI50 (NCI-H226): 11.7 µM (inactive)
GI50 (Malme-3M): > 100 µM (inactive)
GI50 (MDA-MB-435): > 100 µM (inactive)
GI50 (OVCAR-5): > 100 µM (inactive)

CC(=O)Oc1cccc2c1C(=O)c1c(OC(C)=O)cc(C)cc1C2=O
GI50 (SR): 33 µM (inactive)
GI50 (A549): 47.5 µM (inactive)
GI50 (UACC-62): 32.7 µM (inactive)
GI50 (HT-29): 39.6 µM (inactive)
GI50 (MDA-N): 58.5 µM (inactive)
GI50 (SK-MEL-5): 29 µM (inactive)
GI50 (COLO 205): 58.2 µM (inactive)
GI50 (MDA-MB-231): 43 µM (inactive)
GI50 (IGROV-1): 25.7 µM (inactive)
GI50 (BT-549): 61.1 µM (inactive)
GI50 (SN12C): 51.2 µM (inactive)
GI50 (SNB-75): 36 µM (inactive)
GI50 (OVCAR-4): 27.7 µM (inactive)
GI50 (M14): 81.7 µM (inactive)
GI50 (786-0): 20.4 µM (inactive)
GI50 (NCI-H226): > 100 µM (inactive)
GI50 (Malme-3M): 17.1 µM (inactive)
GI50 (MDA-MB-435): 43.4 µM (inactive)
GI50 (OVCAR-5): > 100 µM (inactive)

Clc1ccc2oc(CCC3CCCCC3)nc2c1
GI50 (SR): 19.7 µM (inactive)
GI50 (A549): 31.6 µM (inactive)
GI50 (UACC-62): 60.4 µM (inactive)
GI50 (HT-29): 23.5 µM (inactive)
GI50 (UO-31): 17.9 µM (inactive)
GI50 (MDA-N): 33.3 µM (inactive)
GI50 (SK-MEL-5): 16.9 µM (inactive)
GI50 (COLO 205): 21.4 µM (inactive)
GI50 (MDA-MB-231): 28.3 µM (inactive)
GI50 (BT-549): 26.8 µM (inactive)
GI50 (SN12C): 21.9 µM (inactive)
GI50 (SNB-75): 23 µM (inactive)
GI50 (OVCAR-4): 27.4 µM (inactive)
GI50 (M14): 32 µM (inactive)
GI50 (786-0): 28.2 µM (inactive)
GI50 (NCI-H226): 19.2 µM (inactive)
GI50 (Malme-3M): 39.5 µM (inactive)
GI50 (MDA-MB-435): 27.3 µM (inactive)
GI50 (OVCAR-5): 33.3 µM (inactive)

O=[N+]([O-])c1ccc(-c2nc3cc(Cl)ccc3[nH]2)cc1
GI50 (SR): 34.6 µM (inactive)
GI50 (A549): 42.3 µM (inactive)
GI50 (UACC-62): 81.1 µM (inactive)
GI50 (HT-29): 51.4 µM (inactive)
GI50 (UO-31): 26.1 µM (inactive)
GI50 (MDA-N): 39.7 µM (inactive)
GI50 (SK-MEL-5): 51.4 µM (inactive)
GI50 (COLO 205): 32.9 µM (inactive)
GI50 (MDA-MB-231): > 100 µM (inactive)
GI50 (IGROV-1): 81.3 µM (inactive)
GI50 (BT-549): 99.1 µM (inactive)
GI50 (SN12C): 43.6 µM (inactive)
GI50 (SNB-75): 73.5 µM (inactive)
GI50 (OVCAR-4): 95.5 µM (inactive)
GI50 (M14): 60.7 µM (inactive)
GI50 (786-0): 86.7 µM (inactive)
GI50 (NCI-H226): 82.6 µM (inactive)
GI50 (Malme-3M): > 100 µM (inactive)
GI50 (MDA-MB-435): 41.6 µM (inactive)

C[C@@H]1Nc2cc(NC(=O)OCCF)nc(N)c2N=C1c1ccccc1
GI50 (SR): < 0.0001 µM (active)
GI50 (A549): < 0.0001 µM (active)
GI50 (UACC-62): 34.8 µM (inactive)
GI50 (HT-29): < 0.0001 µM (active)
GI50 (UO-31): 21.5 µM (inactive)
GI50 (MDA-N): < 0.0001 µM (active)
GI50 (SK-MEL-5): < 0.0001 µM (active)
GI50 (COLO 205): < 0.0001 µM (active)
GI50 (MDA-MB-231): < 0.0001 µM (active)
GI50 (IGROV-1): < 0.0001 µM (active)
GI50 (BT-549): 84.1 µM (inactive)
GI50 (SN12C): < 0.0001 µM (active)
GI50 (SNB-75): 32.7 µM (inactive)
GI50 (M14): < 0.0001 µM (active)
GI50 (786-0): < 0.0001 µM (active)
GI50 (NCI-H226): 42.2 µM (inactive)
GI50 (Malme-3M): 0.111 µM (active)
GI50 (MDA-MB-435): < 0.0001 µM (active)
GI50 (OVCAR-5): < 0.0001 µM (active)

COc1ccc2[nH]c3c(C)c4cnccc4c(C)c3c2c1
GI50 (SR): 3.57 µM (inactive)
GI50 (A549): 1.85 µM (inactive)
GI50 (UACC-62): > 10 µM (inactive)
GI50 (HT-29): 1.11 µM (active)
GI50 (MDA-N): 1.85 µM (inactive)
GI50 (SK-MEL-5): > 10 µM (inactive)
GI50 (COLO 205): 1.58 µM (inactive)
GI50 (MDA-MB-231): 2.8 µM (inactive)
GI50 (IGROV-1): 3.85 µM (inactive)
GI50 (BT-549): 7.48 µM (inactive)
GI50 (SN12C): 2.24 µM (inactive)
GI50 (SNB-75): 2.25 µM (inactive)
GI50 (OVCAR-4): 1.94 µM (inactive)
GI50 (M14): 1.26 µM (inactive)
GI50 (786-0): 0.424 µM (active)
GI50 (NCI-H226): 1.4 µM (inactive)
GI50 (Malme-3M): 1.45 µM (inactive)
GI50 (MDA-MB-435): 1.48 µM (inactive)
GI50 (OVCAR-5): 3.11 µM (inactive)

CC(NC(=O)C(NC(=O)C(NC(=O)C(F)(F)F)C(C)C)C(C)C)C(=O)Oc1c(Cl)c(Cl)c(Cl)c(Cl)c1Cl (stereo not drawn)
GI50 (SR): > 100 µM (inactive)
GI50 (A549): > 100 µM (inactive)
GI50 (UACC-62): > 100 µM (inactive)
GI50 (HT-29): > 100 µM (inactive)
GI50 (UO-31): 86.7 µM (inactive)
GI50 (MDA-N): > 100 µM (inactive)
GI50 (SK-MEL-5): > 100 µM (inactive)
GI50 (COLO 205): > 100 µM (inactive)
GI50 (MDA-MB-231): > 100 µM (inactive)
GI50 (IGROV-1): > 100 µM (inactive)
GI50 (BT-549): > 100 µM (inactive)
GI50 (SN12C): > 100 µM (inactive)
GI50 (SNB-75): > 100 µM (inactive)
GI50 (OVCAR-4): > 100 µM (inactive)
GI50 (M14): > 100 µM (inactive)
GI50 (NCI-H226): 94.6 µM (inactive)
GI50 (Malme-3M): > 100 µM (inactive)
GI50 (MDA-MB-435): > 100 µM (inactive)
GI50 (OVCAR-5): > 100 µM (inactive)

CC(C)=CCC1=C(OCC(=O)O)C(=O)c2ccccc2C1=O
GI50 (SR): 34.3 µM (inactive)
GI50 (A549): 30.8 µM (inactive)
GI50 (UACC-62): 19 µM (inactive)
GI50 (HT-29): 47.2 µM (inactive)
GI50 (UO-31): 28 µM (inactive)
GI50 (MDA-N): 17.9 µM (inactive)
GI50 (SK-MEL-5): 19.5 µM (inactive)
GI50 (COLO 205): 60.3 µM (inactive)
GI50 (MDA-MB-231): 49.8 µM (inactive)
GI50 (IGROV-1): 39.1 µM (inactive)
GI50 (BT-549): 29.9 µM (inactive)
GI50 (SN12C): 24.5 µM (inactive)
GI50 (SNB-75): 24.4 µM (inactive)
GI50 (OVCAR-4): 31.9 µM (inactive)
GI50 (M14): 33 µM (inactive)
GI50 (786-0): 41.1 µM (inactive)
GI50 (NCI-H226): 32.4 µM (inactive)
GI50 (Malme-3M): 19.3 µM (inactive)
GI50 (MDA-MB-435): 15.5 µM (inactive)
